Reference: US20120077801A1, “Chemical Compounds 637” (priority 2007, published 2012)
Blank lines part the entries; values can stand above or below the compound they belong to.

Experiments:
[1] = target: T1, recombinant Human Phosphodiesterase B2 (PDE4B2) (Homo sapiens, UniProt Q07343); experiment: Human Phosphodiesterase B2 Alpha Screen Assay; assay type: biochemical; details: Alpha Screen cAMP assay, 60 minutes incubation at room temperature, read-out: PDE4B2 pIC50 (converted)
Experimental: Human Phosphodiesterase B2 Alpha Screen Assay
The assay uses recombinant Human Phosphodiesterase B2 (PDE4B2) produced in house (PrAZL0133), stored at −20° C. The substrate uses cAMP, part of the Alpha Screen cAMP kit (Perkin Elmer, Cat#6760625M), stored at 4° C. The Alpha Screen kit also includes biotinylated cAMP, acceptor and donor beads.
The assay additions were as follows: Test compounds and controls were added to white 384-well flat-bottom plates (Greiner, Cat#781075), 0.2 μl in 100% DMSO, followed by 10 μl PDE4B2 in reaction buffer. The reaction buffer constitution was: 50 mM Tris (pH 7.5), 8.3 mM MgCl2, 1.7 mM EGTA and 0.01% (w/v) Brij®35. The enzyme and the compounds were incubated at room temperature for 15 minutes. Then 10 μl cAMP in reaction buffer was added. The assay was stopped after 60 minutes incubation at room temperature by adding 10 μl acceptor beads in detection buffer with 40 mM EDTA. The detection buffer constitution was: 5 mM Tris (pH 7.5), 0.1% (w/v) BSA and 0.1% (v/v) Tween 20. This addition followed by an addition of 10 μl donor beads in detection buffer, with biotinylated cAMP. The plates were then incubated, dark at room temperature, for 5 hours followed by measurement on a Fusion™-α analyser. pIC50 values (presented in Table 14) were determined using X1fit curve fitting using model 205.

[2] = target: T1, recombinant Human Phosphodiesterase B2 (PDE4B2); experiment: Human Phosphodiesterase B2 Radiometric Assay; assay type: biochemical; details: for IC50: read-out: PDE4B2 pIC50 (converted)
Experimental: Human Phosphodiesterase B2 Radiometric Assay
The assay uses recombinant Human Phosphodiesterase B2 (PDE4B2) produced in house (PrAZL0163), stored at −20° C. This assay is based on the observation that 5′AMP, the product of the reaction catalysed by PDE4, binds preferentially to yttrium silicate SPA beads (Amersham Biosciences, UK) compared to the substrate, cAMP. Compounds at the appropriate concentration were preincubated at 30 C for 30 min. with an assay buffer containing 50 mM HEPES (pH 7.5), 8.3 mM MgCl2, 1.7 mM EGTA, 0.01% (w/v) Brij®35 and 0.1 μg/mL recombinant PDE4B2. The reaction was started by the addition of [3H]cyclic AMP to give a final concentration of 8 nM, and was stopped 20 minutes after the addition of the substrate by the addition of yttrium silicate SPA beads containing 18 mM Zn SO4. Bound [3H]cyclic AMP was measured using a Topcount NXT (Packard Bioscience, UK). pIC50 values (presented in Table 15) were determined using X1fit3 curve fitting, using model 205.

[3] = recombinant human PDE4B2, [3H]cyclic AMP 8 nM, SPA radiometric assay

T1 sequence (Q07343 1-564 isoform Q07343-2): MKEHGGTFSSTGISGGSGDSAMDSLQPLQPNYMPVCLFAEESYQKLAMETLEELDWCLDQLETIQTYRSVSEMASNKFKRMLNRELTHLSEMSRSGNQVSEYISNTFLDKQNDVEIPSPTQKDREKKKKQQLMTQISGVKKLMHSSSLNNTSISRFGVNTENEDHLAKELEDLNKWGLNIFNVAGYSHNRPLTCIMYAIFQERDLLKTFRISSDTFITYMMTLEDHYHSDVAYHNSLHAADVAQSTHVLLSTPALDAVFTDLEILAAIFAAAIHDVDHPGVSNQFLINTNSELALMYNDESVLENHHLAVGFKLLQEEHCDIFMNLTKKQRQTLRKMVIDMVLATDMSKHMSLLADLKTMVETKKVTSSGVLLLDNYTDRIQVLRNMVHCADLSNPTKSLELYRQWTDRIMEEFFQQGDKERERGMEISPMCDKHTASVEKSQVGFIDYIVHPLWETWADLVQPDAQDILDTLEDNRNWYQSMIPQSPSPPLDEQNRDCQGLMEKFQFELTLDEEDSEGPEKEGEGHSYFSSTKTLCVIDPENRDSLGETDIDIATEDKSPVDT

SMILES: COC(=O)[C@H]1CC[C@H](n2c(=O)n([C@H]3CC[C@@H](NC(=O)C4CC4)CC3)c(=O)c3cc(F)cnc32)CC1 [Example 8, methyl trans-4-[3-{cis-4-[(cyclopropylcarbonyl)amino]cyclohexyl}-6-fluoro-2,4-dioxo-3,4-dihydropyrido[2,3-d]pyrimidin-1(2H)-yl]cyclohexanecarboxylate]
IC50 [1]: 0.0501 µM

SMILES: O=C(NC1CN2CCC1CC2)c1cccc(-n2c(=O)n([C@H]3CC[C@@H](NC(=O)c4cn5cc(F)ccc5n4)CC3)c(=O)c3cc(F)cnc32)c1 (some centres unmarked) [Example 42]
PDE4B2 pIC50 [2, 3]: 7.7

SMILES: O=C(N[C@H]1CC[C@@H](n2c(=O)c3cc(F)cnc3n(-c3cccc(OCCN4CCOCC4)c3)c2=O)CC1)c1cn2cc(F)ccc2n1 [Example 43, 6-fluoro-N-{cis-4-[6-fluoro-1-[3-(2-morpholin-4-ylethoxy)phenyl]-2,4-dioxo-1,4-dihydropyrido[2,3-d]pyrimidin-3 (2H)-yl]cyclohexyl}imidazo[1,2-a]pyridine-2-carboxamide]
IC50 [2, 3]: 0.001 µM

Second part, the compound after the results:

PDE4B2 % at 0.32 uM (printed in the pIC50 column) ([2]; at 0.32 uM, recombinant human PDE4B2, radiometric assay): 50% at 0.32 uM
SMILES: CN1CCC(n2c(=O)n([C@H]3CC[C@@H](NC(=O)c4cn5cc(F)ccc5n4)CC3)c(=O)c3cc(F)cnc32)CC1 [Example 40, 6-fluoro-N-{cis-4-[6-fluoro-1-(1-methylpiperidin-4-yl)-2,4-dioxo-1,4-dihydropyrido[2,3-d]pyrimidin-3(2H)-yl]cyclohexyl}imidazo[1,2-a]pyridine-2-carboxamide]

IC50 [2, 3]: 0.158 µM
SMILES: CN(C)CCCn1c(=O)n([C@H]2CC[C@@H](NC(=O)c3cn4cc(F)ccc4n3)CC2)c(=O)c2cc(F)cnc21 [Example 41, N-{cis-4-[1-[3-(dimethylamino)propyl]-6-fluoro-2,4-dioxo-1,4-dihydropyrido[2,3-d]pyrimidin-3(2H)-yl]cyclohexyl}-6-fluoroimidazo[1,2-a]pyridine-2-carboxamide]
